Source: the NIST ThermoML archive (doi:10.1016/j.jct.2018.02.018)

Columns and labels:
[1] = xn = mol fraction of the nth substance listed; conditions: 323.15 K, 100 kPa, Liquid; for speed of sound: Frequency=3 MHz, Single path-length method; for mass density: Vibrating tube method
[2] = refractive index (Na D-line) (dimensionless); xn = mol fraction of the nth substance listed; conditions: 100 kPa, Liquid, Standard Abbe refractometry

NCc1ccccc1 [benzylamine] + C[S+](C)[O-]
[1]
Conditions	mass density [kg/m3]	speed of sound [m/s]
x2 = 0	957	1461.1
x2 = 0.1031	966	1461.4
x2 = 0.1998	974	1459.4
x2 = 0.2979	984	1457.4
x2 = 0.399	994	1453.3
x2 = 0.4991	1005	1448.4
x2 = 0.5886	1015	1442.7
x2 = 0.6999	1028	1434
x2 = 0.8029	1042	1425.3
x2 = 0.8991	1055	1414.6
x2 = 0.9493	1062	1408.5

refractive index, [2]
Conditions	293.15 K	303.15 K	313.15 K	323.15 K
x2 = 0	1.544	1.539	1.534	1.529
x2 = 0.1031	1.54	1.535	1.53	1.526
x2 = 0.1998	1.536	1.531	1.527	1.522
x2 = 0.2979	1.532	1.527	1.522	1.517
x2 = 0.399	1.526	1.522	1.517	1.512
x2 = 0.4991	1.52	1.516	1.511	1.506
x2 = 0.5886	1.515	1.51	1.505	1.501
x2 = 0.6999	1.507	1.502	1.498	1.493
x2 = 0.8029	1.498	1.494	1.489	1.485
x2 = 0.8991	1.49	1.485	1.481	1.476
x2 = 0.9493	1.485	1.48	1.476	1.471
